Source: US20200148646A1, “6-S[…] 7-S[…] ANALOGS AND THE USE THEREOF” (Purdue Pharma, L.P., priority 2013, published 2020)

Columns and labels:
human κ opioid receptor [1] = molecular target: T1, human κ opioid receptor (Homo sapiens, UniProt P41145); assay: κ-opioid receptor [35S]GTPγS functional assay, U-2 OS cells; type: biochemical; design: expressed in transfected cells; host or cells: U-2 OS cells (in-house membranes); conditions: for Emax: U2-OS cells, relative to U69,593
Summary of the method: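 Membranes from U-2 OS cells expressing human κ receptor (0.026 μg/μl protein) were incubated with agonist, 10 μg/mL saponin, 3 μM GDP and 0.20 nM [35S]GTPγS in pH 7.4 HEPES buffer for 30 min at about 25 °C. Bound radioactivity was measured after filtration. EC50 was taken at half-maximal response; Emax is relative to U69,593.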

μ-opioid receptor [2] = molecular target: T2, μ-opioid receptor (Homo sapiens, UniProt P35372); assay: μ-opioid receptor [35S]GTPγS functional assay, HEK-293 or CHO cells; type: biochemical; conditions: for Emax: HEK-293 or CHO cells, relative to DAMGO
T2 sequence (P35372 whole entry, species assumed): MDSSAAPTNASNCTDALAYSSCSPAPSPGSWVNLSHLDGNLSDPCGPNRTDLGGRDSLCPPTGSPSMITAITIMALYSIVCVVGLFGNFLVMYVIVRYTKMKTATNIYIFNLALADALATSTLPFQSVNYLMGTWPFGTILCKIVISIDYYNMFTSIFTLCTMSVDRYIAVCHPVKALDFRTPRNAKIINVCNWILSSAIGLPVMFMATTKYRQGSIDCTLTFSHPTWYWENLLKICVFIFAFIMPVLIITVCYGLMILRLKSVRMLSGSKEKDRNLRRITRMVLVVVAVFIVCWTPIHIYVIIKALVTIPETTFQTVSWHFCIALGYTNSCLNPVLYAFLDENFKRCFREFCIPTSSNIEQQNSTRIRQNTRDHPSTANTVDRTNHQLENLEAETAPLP
Summary of the method: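 Agonist-stimulated [35S]GTPγS binding to recombinant μ-receptor membranes (HEK-293 or CHO) with 0.20 nM [35S]GTPγS, […] and saponin, pH 7.4, 30 min at about 25 °C, then filtration and scintillation counting. EC50 from sigmoidal fits; Emax relative to DAMGO.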

human κ opioid receptor [3] = molecular target: T1, human κ opioid receptor; assay: κ-opioid receptor [35S]GTPγS functional assay, HEK-293 or CHO cells; type: biochemical; design: expressed in transfected cells; conditions: for Emax: HEK-293 or CHO cells, relative to U69,593
Protocol: Membranes from recombinant HEK-293 cells, CHO or U-2 OS cells expressing the recombinant human K opioid receptor (K) were prepared by lysing cells in ice cold hypotonic buffer (2.5 mM MgCl2, 50 mM HEPES, pH 7.4) (10 mL/10 cm dish) followed by homogenization with a tissue grinder/Teflon pestle. Functional [^35S]GTPγS binding assays were conducted as follows. K opioid receptor membrane solution was prepared by sequentially adding final concentrations of 0.026 μg/μl κ membrane protein (in-house), 10 μg/mL saponin, 3 μM GDP and 0.20 nM [^35S]GTPγS to binding buffer (100 mM NaCl, 10 mM MgCl2, 20 mM HEPES, pH 7.4) on ice. The prepared membrane solution (190 μl/well) was transferred to 96-shallow well polypropylene plates containing 10 μl of 20× concentrated stock solutions of agonist prepared in DMSO. Plates were incubated for 30 min at a temperature of about 25° C. with shaking. Reactions were terminated by rapid filtration onto 96-well Unifilter GF/B filter plates (Perkin Elmer, Shelton, Conn.) using a 96-well tissue harvester (Packard) and followed by three filtration washes with 200 μl ice-cold binding buffer (10 mM NaH2PO4, 10 mM Na2HPO4, pH 7.4). Filter plates were subsequently dried at 50° C. for 2-3 hours. Fifty μl/well scintillation cocktail (Perkin Elmer, Shelton, Conn.) was added and plates were counted in a Packard Top-Count for 1 min/well.
κ GTP EC50 is the concentration of a compound providing 50% of the maximal response for the compound at a κ receptor.
κ GTP Emax (%) is the maximal effect elicited by a compound relative to the effect elicited by U69,593.
In TABLE 2, activity response of certain Compounds of the Invention at the μ- and κ-opioid receptors using HEK-293 or CHO cells was determined as described above for functional assays.

human κ opioid receptor [4] = molecular target: T1, human κ opioid receptor; assay: κ-opioid receptor radioligand ([3H]-U69,593) dose-displacement binding assay, HEK-293 or CHO cells; design: expressed in transfected cells; host or cells: HEK-293 cells (in-house prep)
Protocol: Membranes from recombinant HEK-293 cells expressing the human K opioid receptor (cloned in house) were prepared by lysing cells in ice cold hypotonic buffer (2.5 mM MgCl2, 50 mM HEPES, pH 7.4) (10 mL/10 cm dish) followed by homogenization with a tissue grinder/Teflon pestle. Membranes were collected by centrifugation at 30,000×g for 15 min at 4° C. and pellets were resuspended in hypotonic buffer to a final concentration of 1-3 mg/mL. Protein concentrations were determined using the BioRad protein assay reagent with bovine serum albumen as standard. Aliquots of κ receptor membranes were stored at −80° C.
Radioligand dose displacement assays used 0.4 nM [^3H]-U69,593 (GE Healthcare, Piscataway, N.J.; 40 Ci/mmole) with 15 μg membrane protein (recombinant K opioid receptor expressed in HEK 293 cells; in-house prep) in a final volume of 200 μl binding buffer (5% DMSO, 50 mM Trizma base, pH 7.4). Non-specific binding was determined in the presence of 10 μM unlabeled naloxone or U69,593. All reactions were performed in 96-well polypropylene plates for 1 hr at a temperature of about 25° C. Binding reactions were terminated by rapid filtration onto 96-well Unifilter GF/C filter plates (Perkin Elmer, Shelton, Conn.) presoaked in 0.5% polyethylenimine (Sigma). Harvesting was performed using a 96-well tissue harvester (Perkin Elmer, Shelton, Conn.) followed by five filtration washes with 200 μl ice-cold binding buffer. Filter plates were subsequently dried at 50° C. for 1-2 hours. Fifty μl/well scintillation cocktail (Perkin Elmer, Shelton, Conn.) was added and plates were counted in a Packard Top-Count for 1 min/well.
(§1) In TABLE 1, binding affinity of certain Compounds of the Invention to the μ-, and κ-opioid receptors in HEK-293 or CHO cells was determined as described above.

μ-opioid receptor [5] = molecular target: T2, μ-opioid receptor; assay: μ-opioid receptor radioligand ([3H]-diprenorphine) dose-displacement binding assay, HEK-293 or CHO cells
Protocol: Radioligand dose-displacement binding assays for μ-opioid receptors used 0.3 nM [^3H]-diprenorphine (Perkin Elmer, Shelton, Conn.), with […] membrane protein/well in a final volume of 500 μl binding buffer (10 mM MgCl2, 1 mM EDTA, 5% DMSO, 50 mM HEPES, pH 7.4). Reactions were carried out in the absence or presence of increasing concentrations of unlabeled naloxone. All reactions were conducted in 96-deep well polypropylene plates for 2 hr at room temperature. Binding reactions were terminated by rapid filtration onto 96-well Unifilter GF/C filter plates (Perkin Elmer, Shelton, Conn.), presoaked in 0.5% polyethylenimine using a 96-well tissue harvester (Perkin Elmer, Shelton, Conn.) followed by performing three filtration washes with 500 μl of ice-cold binding buffer. Filter plates were subsequently dried at 50° C. for 2-3 hours. BetaScint scintillation cocktail (Perkin Elmer, Shelton, Conn.) was added (50 l/well), and plates were counted using a Packard Top-Count for 1 min/well. The data were analyzed using the one-site competition curve fitting functions in GraphPad PRISM™ v. 3.0 or higher (San Diego, Calif.), or an in-house function for one-site competition curve-fitting.
as §1

μ-opioid receptor [6] = molecular target: T2, μ-opioid receptor; assay: μ-opioid receptor [35S]GTPγS functional assay, U-2 OS cells; type: biochemical; design: host or cells: U-2 OS cells; conditions: for Emax: U2-OS cells, relative to DAMGO
Summary of the method: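 U-2 OS membranes expressing recombinant human μ-receptor (0.026 mg/mL) were incubated with compound, […], saponin and [35S]GTPγS 0.20 nM in HEPES/NaCl/MgCl2 buffer pH 7.4 for 30 min at about 25° C. Filter-bound radioactivity gave sigmoidal fits for EC50; Emax is relative to DAMGO.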

T1 sequence (P41145 whole entry): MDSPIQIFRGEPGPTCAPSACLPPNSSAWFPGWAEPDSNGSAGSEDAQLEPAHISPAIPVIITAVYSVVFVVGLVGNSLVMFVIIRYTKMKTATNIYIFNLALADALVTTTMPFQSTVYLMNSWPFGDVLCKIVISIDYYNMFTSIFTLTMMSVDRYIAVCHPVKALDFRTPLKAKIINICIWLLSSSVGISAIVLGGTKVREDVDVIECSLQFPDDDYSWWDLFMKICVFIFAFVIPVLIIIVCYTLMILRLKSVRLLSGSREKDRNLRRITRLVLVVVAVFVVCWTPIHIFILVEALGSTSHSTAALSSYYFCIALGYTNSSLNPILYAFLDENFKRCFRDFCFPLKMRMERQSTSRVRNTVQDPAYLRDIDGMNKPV

Structure (SMILES) | EC50 (human κ opioid receptor [1]) [nM] | Emax (human κ opioid receptor [1]) [%] | EC50 (μ-opioid receptor [2]) [nM] | Emax (μ-opioid receptor [2]) [%] | EC50 (human κ opioid receptor [3]) [nM] | Emax (human κ opioid receptor [3]) [%] | Ki (human κ opioid receptor [4]) [nM] | Ki (μ-opioid receptor [5]) [nM] | EC50 (μ-opioid receptor [6]) [nM] | Emax (μ-opioid receptor [6]) [%]
CCC(=O)N[C@H]1C[C@@]2(O)[C@H]3Cc4ccc(O)cc4[C@@]2(CCN3CC2CC2)C[C@H]1O [Compound 56, N-((4bR,6R,7S,8aS,9R)-11-(cyclopropylmethyl)-3,6,8a-trihydroxy-6,7,8,8a,9,10-hexahydro-5H-9,4b-(epiminoethano)phenanthren-7-yl)propionamide] | 29.3 ± 4.34 | 105 ± 3.38 | > 20000 | 1 | 71.8 ± 8.76 | 53 ± 0.58 | 7.19 ± 0.87 | 54.2 ± 12.5 | 95 ± 16.4 | 19.3 ± 1.45
CCC(=O)N[C@H]1C[C@@]2(O)[C@H]3Cc4ccc(O)cc4[C@@]2(CCN3CC2CC2)C[C@@H]1O [Compound 57, N-((4bR,6S,7S,8aS,9R)-11-(cyclopropylmethyl)-3,6,8a-trihydroxy-6,7,8,8a,9,10-hexahydro-5H-9,4b-(epiminoethano)phenanthren-7-yl)propionamide] | 33.1 ± 3.53 | 113 ± 5.86 | > 20000 | 1.5 | 26.1 ± 6.87 | 37.2 ± 3.07 | 16.7 ± 2.61 | 44.9 ± 7.71 | 77.7 ± 10.3 | 9 ± 0.58
